Assay results as given in US20160106102A1, “KNOWN AND NEW HETEROCYCLIC COMPOUNDS AS PEST CONTROL AGENTS” (BAYER CROPSCIENCE AKTIENGESELLSCHAFT, priority 2013, published 2016).

Test system: Myzus persicae
Experiment: Myzus persicae - spray test
Type: in vivo
Settings: application rate of 500 g/ha; after 6 days; sprayed Chinese cabbage leaf discs infested by all stages; 100% = all aphids killed
Outline: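 Chinese cabbage leaf discs infested with all stages of green peach aphid sprayed with compound in acetone/DMF formulation with alkylaryl polyglycol ether emulsifier, diluted in emulsifier-containing water. Efficacy (% aphids killed) assessed after 6 days.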

Row | SMILES | efficacy in %
1 | Cc1cc(C)nc(CNC(=O)n2nc(NC(=O)c3cccnc3)cc2C)n1 [Compound I-1-338] | 90%
2 | Cc1cc(N(C)C(=O)c2cccnc2)nn1CC1CCCO1 (centres unmarked) [Compound I-1-181] | 90%
3 | O=C(Nc1ccn(CC(F)(F)F)n1)c1cccnc1 [Compound I-1-10] | 90%
4 | Cc1cc(NC(=O)c2cccnc2)nn1C(=O)c1ncccn1 [Compound I-1-345] | 90%
5 | Cc1c(Cl)c(NC(=O)c2cccnc2)nn1Cc1ncccn1 [Compound I-1-212] | 90%
6 | Cc1cc(NC(=O)c2cccnc2)nn1Cc1ccncc1 [Compound I-1-51] | 90%
7 | COC(=O)OCCn1nc(NC(=O)c2cccnc2)cc1C [Compound I-1-191] | 90%
8 | Cc1cc(NC(=O)c2cccnc2)nn1C(F)F [Compound I-1-8] | 90%
9 | Cc1cc(NC(=O)c2cccnc2)nn1Cc1ncnn1-c1ccccc1 [Compound I-1-304] | 100%
10 | Cn1nc(NC(=O)c2cccnc2)cc1C(F)F [Compound I-1-221] | 90%
11 | CCC(C)NC(=O)n1nc(NC(=O)c2cccnc2)cc1C (centres unmarked) [Compound I-1-317] | 90%
12 | O=C(Nc1ccn(-c2ccccn2)n1)c1cccnc1 [Compound I-1-52] | 90%
13 | COCCNC(=O)n1nc(NC(=O)c2cccnc2)cc1C [Compound I-1-163] | 100%
14 | Cc1cc(NC(=O)c2cccnc2)nn1Cn1nc(C2CC2)n(C2CC2)c1=O [Compound I-1-147] | 100%
15 | Cc1cc(NC(=O)c2cccnc2)nn1S(C)(=O)=O [Compound I-1-277] | 100%
16 | Cc1cc(NC(=O)c2cccnc2)nn1C[S+](C)[O-] (centres unmarked) [Compound I-1-243] | 100%
17 | O=C(Nc1nn(Cc2ncccn2)c2ccccc12)c1cncc(F)c1 [Compound I-1-216] | 90%
18 | Cc1cc(NC(=O)c2cccnc2)nn1CC(=O)C1(Cl)CC1 [Compound I-1-260] | 90%

Test system: Myzus persicae
Experiment: Myzus persicae - sachet test
Type: in vivo
Settings: application rate of 6 ppm in nutrient medium; 100% = all animals killed
Outline: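 Green peach aphids feed through a sealed sachet on nutrient medium containing the water-diluted formulation (solvents: 2% N-methylpyrrolidone, 2% diacetone alcohol). Percent mortality read after the chosen time; 100% means all animals killed.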

Row | SMILES | efficacy (kill in %)
19 | Cc1cc(C)nc(CNC(=O)n2nc(NC(=O)c3cccnc3)cc2C)n1 [Compound I-1-338] | 100%
20 | O=C(Nc1ccn(CC(F)(F)F)n1)c1cccnc1 [Compound I-1-10] | 100%
21 | Cc1cc(NC(=O)c2cccnc2)nn1C(=O)c1ncccn1 [Compound I-1-345] | 100%
22 | Cc1c(Cl)c(NC(=O)c2cccnc2)nn1Cc1ncccn1 [Compound I-1-212] | 100%
23 | Cc1cc(NC(=O)c2cccnc2)nn1Cc1ccncc1 [Compound I-1-51] | 100%
24 | COC(=O)OCCn1nc(NC(=O)c2cccnc2)cc1C [Compound I-1-191] | 100%
25 | Cc1cc(NC(=O)c2cccnc2)nn1C(F)F [Compound I-1-8] | 100%
26 | Cc1cc(NC(=O)c2cccnc2)nn1Cc1ncnn1-c1ccccc1 [Compound I-1-304] | 100%
27 | Cn1nc(NC(=O)c2cccnc2)cc1C(F)F [Compound I-1-221] | 100%
28 | CCC(C)NC(=O)n1nc(NC(=O)c2cccnc2)cc1C (centres unmarked) [Compound I-1-317] | 100%
29 | O=C(Nc1ccn(-c2ccccn2)n1)c1cccnc1 [Compound I-1-52] | 100%
30 | COCCNC(=O)n1nc(NC(=O)c2cccnc2)cc1C [Compound I-1-163] | 100%
31 | Cc1cc(NC(=O)c2cccnc2)nn1Cn1nc(C2CC2)n(C2CC2)c1=O [Compound I-1-147] | 100%
32 | Cc1cc(NC(=O)c2cccnc2)nn1S(C)(=O)=O [Compound I-1-277] | 100%
33 | Cc1cc(NC(=O)c2cccnc2)nn1C[S+](C)[O-] (centres unmarked) [Compound I-1-243] | 100%
34 | O=C(Nc1nn(Cc2ncccn2)c2ccccc12)c1cncc(F)c1 [Compound I-1-216] | 100%
35 | Cc1cc(NC(=O)c2cccnc2)nn1CC(=O)C1(Cl)CC1 [Compound I-1-260] | 100%

Same assay, conditions: application rate of 30 ppm in nutrient medium; 100% = all animals killed

Row | SMILES | efficacy (kill in %)
36 | Cc1cc(C)nc(CNC(=O)n2nc(NC(=O)c3cccnc3)cc2C)n1 [Compound I-1-338] | 100%
37 | Cc1cc(N(C)C(=O)c2cccnc2)nn1CC1CCCO1 (centres unmarked) [Compound I-1-181] | 80%
38 | O=C(Nc1ccn(CC(F)(F)F)n1)c1cccnc1 [Compound I-1-10] | 100%
39 | Cc1cc(NC(=O)c2cccnc2)nn1C(=O)c1ncccn1 [Compound I-1-345] | 100%
40 | Cc1c(Cl)c(NC(=O)c2cccnc2)nn1Cc1ncccn1 [Compound I-1-212] | 100%
41 | Cc1cc(NC(=O)c2cccnc2)nn1Cc1ccncc1 [Compound I-1-51] | 100%
42 | COC(=O)OCCn1nc(NC(=O)c2cccnc2)cc1C [Compound I-1-191] | 100%
43 | Cc1cc(NC(=O)c2cccnc2)nn1C(F)F [Compound I-1-8] | 100%
44 | Cc1cc(NC(=O)c2cccnc2)nn1Cc1ncnn1-c1ccccc1 [Compound I-1-304] | 100%
45 | Cn1nc(NC(=O)c2cccnc2)cc1C(F)F [Compound I-1-221] | 100%
46 | CCC(C)NC(=O)n1nc(NC(=O)c2cccnc2)cc1C (centres unmarked) [Compound I-1-317] | 100%
47 | O=C(Nc1ccn(-c2ccccn2)n1)c1cccnc1 [Compound I-1-52] | 100%
48 | COCCNC(=O)n1nc(NC(=O)c2cccnc2)cc1C [Compound I-1-163] | 100%
49 | Cc1cc(NC(=O)c2cccnc2)nn1Cn1nc(C2CC2)n(C2CC2)c1=O [Compound I-1-147] | 100%
50 | Cc1cc(NC(=O)c2cccnc2)nn1S(C)(=O)=O [Compound I-1-277] | 100%
51 | Cc1cc(NC(=O)c2cccnc2)nn1C[S+](C)[O-] (centres unmarked) [Compound I-1-243] | 100%
52 | O=C(Nc1nn(Cc2ncccn2)c2ccccc12)c1cncc(F)c1 [Compound I-1-216] | 100%
53 | Cc1cc(NC(=O)c2cccnc2)nn1CC(=O)C1(Cl)CC1 [Compound I-1-260] | 100%

Test system: not listed separately
Experiment: log P determination by LC-MS in the acidic range
Type: physicochemical
Settings: LC-MS in the acidic range
From the text: The LC-MS determination in the acidic range is effected at pH 2.7 using 0.1% aqueous formic acid and acetonitrile (contains 0.1% formic acid) as eluents, linear gradient from 10% acetonitrile to 95% acetonitrile. Alternatively, the determination is effected in the acidic range at pH 2.3 using 0.1% aqueous phosphoric acid and acetonitrile as eluents; linear gradient from 10% acetonitrile to 95% acetonitrile.

Row | SMILES | log P (acid)
54 | Cc1cc(C)nc(CNC(=O)n2nc(NC(=O)c3cccnc3)cc2C)n1 [Compound I-1-338] | 1.43
55 | Cc1cc(N(C)C(=O)c2cccnc2)nn1CC1CCCO1 (centres unmarked) [Compound I-1-181] | 1.05
56 | O=C(Nc1ccn(CC(F)(F)F)n1)c1cccnc1 [Compound I-1-10] | 1.43
57 | Cc1cc(NC(=O)c2cccnc2)nn1C(=O)c1ncccn1 [Compound I-1-345] | 1.11
58 | Cc1c(Cl)c(NC(=O)c2cccnc2)nn1Cc1ncccn1 [Compound I-1-212] | 0.94
59 | Cc1cc(NC(=O)c2cccnc2)nn1Cc1ccncc1 [Compound I-1-51] | 0.13
60 | COC(=O)OCCn1nc(NC(=O)c2cccnc2)cc1C [Compound I-1-191] | 0.98
61 | Cc1cc(NC(=O)c2cccnc2)nn1C(F)F [Compound I-1-8] | 1.19
62 | Cc1cc(NC(=O)c2cccnc2)nn1Cc1ncnn1-c1ccccc1 [Compound I-1-304] | 1.32
63 | Cn1nc(NC(=O)c2cccnc2)cc1C(F)F [Compound I-1-221] | 1.04
64 | CCC(C)NC(=O)n1nc(NC(=O)c2cccnc2)cc1C (centres unmarked) [Compound I-1-317] | 1.83
65 | O=C(Nc1ccn(-c2ccccn2)n1)c1cccnc1 [Compound I-1-52] | 1.32
66 | COCCNC(=O)n1nc(NC(=O)c2cccnc2)cc1C [Compound I-1-163] | 1.22
67 | Cc1cc(NC(=O)c2cccnc2)nn1Cn1nc(C2CC2)n(C2CC2)c1=O [Compound I-1-147] | 1.45
68 | Cc1cc(NC(=O)c2cccnc2)nn1S(C)(=O)=O [Compound I-1-277] | 1.03
69 | Cc1cc(NC(=O)c2cccnc2)nn1C[S+](C)[O-] (centres unmarked) [Compound I-1-243] | 0.19
70 | O=C(Nc1nn(Cc2ncccn2)c2ccccc12)c1cncc(F)c1 [Compound I-1-216] | 1.54
71 | Cc1cc(NC(=O)c2cccnc2)nn1CC(=O)C1(Cl)CC1 [Compound I-1-260] | 1.38
